# Test results published in the Deep4Chem optical property database.
# Experiment: solvent given as SMILES
smiles,measurement,setting,value
CC1=CC(C)=[N+]2C1=Cc1c3ccccc3c(C#Cc3ccccc3)n1[B-]2(F)F,absorption maximum,in CCCCCC,608 nm
same,absorption maximum,in CCCCCCCCO,612 nm
same,absorption maximum,in CCOC(C)=O,606 nm
same,absorption maximum,in CN(C)C=O,612 nm
same,absorption maximum,in ClCCl,612 nm
CCCCCOc1cc2oc(=O)c3c4ccc(C#N)cc4c4ccc5cccc6c(c1)c2c3c4c56,absorption maximum,in C1CCOC1,426 nm
CC(C)c1cc(C(C)C)c(B2c3ccccc3Oc3cc(-n4c5ccccc5c5c6c(c7ccccc7n6-c6ccccc6)c6c(c7ccccc7n6-c6ccccc6)c54)ccc32)c(C(C)C)c1,absorption maximum,in Cc1ccccc1,458 nm
COc1ccc(-c2nc3ccccc3nc2-c2ccc(OC)cc2)cc1,absorption maximum,in ClC(Cl)Cl,368 nm
CC(C)CCCN1c2ccccc2CCc2ccccc21,absorption maximum,in CC#N,276 nm
same,absorption maximum,in CO,276 nm
CC(C)(C)C1CCC(=CS/C=C/c2ccc(-c3ccc(/C=C/SC=C4CCC(C(C)(C)C)CC4)cc3)cc2)CC1 (configuration not stated),absorption maximum,in ClCCl,350 nm
CC1(C)C(/C=C/C2=C(c3ccc(C(=O)O)cc3)C(=C/C=C3/N(CCCCS(=O)(=O)[O-])c4ccccc4C3(C)C)/CC2)=[N+](CCCCS(=O)(=O)[O-])c2ccccc21,absorption maximum,in CO,797 nm
c1ccc(-c2cc(-c3ccc(-c4nc(-c5ccccn5)c(-c5ccccn5)[nH]4)cc3)cc(-c3ccccn3)n2)nc1,absorption maximum,in C1CCOC1,371 nm
same,absorption maximum,in CC#N,380 nm
same,absorption maximum,in CC(C)=O,381 nm
same,absorption maximum,in CCO,326 nm
same,absorption maximum,in CCOC(C)=O,360 nm
same,absorption maximum,in CN(C)C=O,337 nm
same,absorption maximum,in CO,321 nm
same,absorption maximum,in CS(C)=O,338 nm
same,absorption maximum,in ClC(Cl)Cl,408 nm
same,absorption maximum,in ClCCl,388 nm
CCC1=C(C)C2=Cc3c4ccccc4c4n3[B-](c3ccncc3)(Oc3ccccc3-4)[N+]2=C1C=Cc1ccc(OC)cc1 (configuration not stated),absorption maximum,in CC#N,690 nm
same,absorption maximum,in CCCCCC,698 nm
same,absorption maximum,in Cc1ccccc1,703 nm
same,absorption maximum,in ClCCl,699 nm
CC1=NN(c2ccccc2)C(=O)/C1=C/c1cn(-c2ccccc2)nc1-c1ccccc1,absorption maximum,in C1CCOC1,365 nm
same,absorption maximum,in C1COCCO1,366 nm
same,absorption maximum,in CCO,367 nm
same,absorption maximum,in CCOC(C)=O,364 nm
same,absorption maximum,in CN(C)C=O,367 nm
same,absorption maximum,in CO,364 nm
same,absorption maximum,in CS(C)=O,370 nm
same,absorption maximum,in Cc1ccccc1,369 nm
same,absorption maximum,in ClC(Cl)Cl,368 nm
same,absorption maximum,in ClCCl,368 nm
N#Cc1ccc(C2=Cc3ccccc3P2(=O)c2ccccc2)cc1 (configuration not stated),absorption maximum,in ClCCl,350 nm
CC(C)(C)n1c(=O)c2cc3ccc4cccc5ccc(c2c1=O)c3c45,absorption maximum,in ClC(Cl)Cl,423 nm
O=C1NC(c2ccccc2)=C/C1=C\c1ccccc1,absorption maximum,in C1COCCO1,422 nm
CCCCCCn1c(=O)c2c3nc4cc5sc6c(nc5cc4sc3c3c(=O)n(CCCCCC)c(=O)c3c2c1=O)c1c(=O)n(CCCCCC)c(=O)c1c1c(=O)n(CCCCCC)c(=O)c61,absorption maximum,in ClCCl,633 nm
O=C1c2ccccc2C2=Cc3ccc4ccccc4[n+]3[B-](F)(F)N12,absorption maximum,in CCO,450 nm
same,absorption maximum,in Cc1ccccc1,458 nm
same,absorption maximum,in ClCCl,454 nm
Cc1cc2c(o1)=CC1=C(C(F)(F)F)c3cc4oc(C)cc4n3[B-](F)(F)[N+]=21,absorption maximum,in ClC(Cl)Cl,613 nm
FC(F)(F)c1ccc(/C2=C3N=C(C(c4ccccc4)=C/3c3ccccc3)/C(c3ccc(C(F)(F)F)cc3)=c3\[nH]/c(c(-c4ccccc4)c3-c3ccccc3)=C(/c3ccc(C(F)(F)F)cc3)C3=N/C(=C(/c4ccc(C(F)(F)F)cc4)c4[nH]c2c(-c2ccccc2)c4-c2ccccc2)C(c2ccccc2)=C3c2ccccc2)cc1,absorption maximum,in ClCCl,708 nm
CCC12C(=C3C(=C4c5ccc(-c6ccccc6)cc5S(=O)(=O)C41CC)C(F)(F)C(F)(F)C3(F)F)c1ccc(-c3ccccc3)cc1S2(=O)=O (configuration not stated),absorption maximum,in C1COCCO1,456 nm
CN(C)c1ccc(C2=CC3=C(c4ccc(C=O)cc4)[C@H]4c5ccccc5[C@]3(S2)c2ccccc24)cc1,absorption maximum,in ClCCl,449 nm
CCc1cccc(CC)c1-c1c2ccccc2c(C#Cc2ccccc2)c2cc3ccccc3cc12,absorption maximum,in ClCCl,523 nm
CCn1c(-c2ccc(OC)cc2)c(-c2ccc3ccccc3c2)c(-c2ccc3ccccc3c2)c1-c1ccc(OC)cc1,absorption maximum,in CCOC(C)=O,259 nm
CC1(C)c2ccccc2N(c2ccc(-c3cc(-c4ccccc4)nc(-c4ccccc4)n3)cc2)c2ccccc21,absorption maximum,in Cc1ccccc1,374.95 nm
Cc1cc(C)c(C2=C3C=c4c(c5ccccc5c5ccccc45)=[N+]3[B-](F)(F)n3c2cc2c4ccccc4c4ccccc4c23)c(C)c1,absorption maximum,in C1CCCCC1,674 nm
same,absorption maximum,in C1CCOC1,673 nm
same,absorption maximum,in CC#N,666 nm
same,absorption maximum,in Cc1ccccc1,680 nm
same,absorption maximum,in ClCCl,673 nm
CCCCCCCCc1ccc(-n2c3c4ccccc4nc(-c4ccc(C#N)cc4)c3c3c2c2c(-c4ccc(C#N)cc4)nc4ccccc4c2n3-c2ccc(CCCCCCCC)cc2)cc1,absorption maximum,in ClC(Cl)Cl,314 nm
CC(C)(C)NS(=O)(=O)c1ccc2c(c1)C(=O)/C(=C1\Sc3ccc(S(=O)(=O)NC(C)(C)C)cc3C1=O)S2,absorption maximum,in C1COCCO1,538 nm
same,absorption maximum,in CN(C)C=O,543 nm
same,absorption maximum,in CS(C)=O,546 nm
CN(C)c1ccc(-c2cc(-c3cccs3)nc(-c3ccccc3)n2)cc1,absorption maximum,in ClC(Cl)Cl,371 nm
Cc1csc2[n+]1[B-](F)(F)n1c(c3cccc4cccc1c43)=N2,absorption maximum,in C1CCOC1,476 nm
same,absorption maximum,in CC#N,470 nm
same,absorption maximum,in CCCCCC,477 nm
same,absorption maximum,in Cc1ccccc1,479 nm
same,absorption maximum,in ClCCl,445 nm
C[Si](C)(C)c1sc([Si](C)(C)C)c2c1sc1ccsc12,absorption maximum,in ClC(Cl)Cl,310 nm
CCCCCCCCCCCCOc1cc2c3c(ccc4c5c(NC6CCCCC6)cc6c7c(ccc(c1c34)c75)C(=O)N(C1CCCCC1)C6=O)C(=O)N(C1CCCCC1)C2=O,absorption maximum,in ClC(Cl)Cl,640 nm
Cc1ccc2c(c1)C1(c3ccccc3-c3ccccc31)c1cc(C)ccc1N2c1ccc2c(c1)Sc1ccccc1P2(=S)c1ccccc1 (configuration not stated),absorption maximum,in Cc1ccccc1,311.25 nm
FC(F)(F)c1ccc(-c2nc(-c3ccc(C(F)(F)F)cc3)n3ccccc23)cc1,absorption maximum,in ClC(Cl)Cl,325 nm
N#Cc1nc(N(Cc2ccc(Cl)cc2)Cc2ccc(Cl)cc2)c(C#N)nc1N(Cc1ccc(Cl)cc1)Cc1ccc(Cl)cc1,absorption maximum,in ClC(Cl)Cl,485 nm
Oc1c(-c2ccco2)cccc1-c1nc2ccccc2s1,absorption maximum,in ClCCl,360 nm
same,absorption maximum,in O,360 nm
CN(C)CCCN1c2ccccc2CCc2ccccc21,absorption maximum,in CC#N,276 nm
same,absorption maximum,in CO,274 nm
same,absorption maximum,in O,275 nm
Cc1cc2ccccc2c2c1c1ccccc1n2-c1ncccn1,absorption maximum,in ClCCl,303 nm
C(#Cc1cccs1)c1ncc(-c2ccccc2)o1,absorption maximum,in ClCCl,325 nm
COC(=O)/C=C/c1sc(-c2ccc(N(C)C)s2)c(-c2ccsc2)c1N,absorption maximum,in CC#N,472 nm
Cc1ccc2c(c1)C1(c3ccccc3-c3ccccc31)c1cc(C)ccc1N2c1ccc2c(c1)Oc1ccccc1P2(=S)c1ccccc1 (configuration not stated),absorption maximum,in Cc1ccccc1,311.25 nm
Cc1ccc(/C=C/c2ccccc2-[n+]2noc([O-])c2C)cc1,absorption maximum,in C1CCCCC1,314 nm
same,absorption maximum,in CC#N,310 nm
same,absorption maximum,in CCO,312 nm
COc1ccccc1-c1nc(-c2ccccc2)c(-c2ccccc2)[nH]1,absorption maximum,in CO,307 nm
CCN(CC)c1ccc([N+]2=Cc3ccc4c5c(ccc4c3O[B-]2(c2ccccc2)c2ccccc2)C=[N+](c2ccc(N(CC)CC)cc2)[B-](c2ccccc2)(c2ccccc2)O5)cc1,absorption maximum,in Cc1ccccc1,558 nm
same,absorption maximum,in ClCCl,552 nm
COc1ccc(C2=C3C=CC(=[N+](C)C)C=C3[Si](C)(C)c3cc(N(C)C)ccc32)c(OC)c1,absorption maximum,in O,649 nm
Nc1cc2nc3cc(Br)c(Br)cc3nc2cc1N,absorption maximum,in CCO,442 nm
C1=C(c2ccccc2)C=C(c2ccccc2)/C1=C/c1ccc2c(c1)Cc1ccccc1-2,absorption maximum,in C1CCOC1,384 nm
Cc1ccc(C2=CC(c3ccc(C)cc3)=[N+]3C2=Nc2c(-c4ccc(C)cc4)cc(-c4ccc(C)cc4)n2[B-]3(F)F)cc1,absorption maximum,in ClC(Cl)Cl,652 nm
COCCOCCOCCNc1cc2c3c(c(NCCOCCOCCOC)cc4c3c1C(=O)N(CCOCCOCCOC)C4=O)C(=O)N(CCOCCOCCOC)C2=O,absorption maximum,in CO,605 nm
same,absorption maximum,in ClC(Cl)Cl,610 nm
same,absorption maximum,in O,623 nm
Cc1ccc(C2=C3C=C(I)C=[N+]3[B-](F)(F)n3c2cc(I)c3I)cc1,absorption maximum,in C1CCCCC1,563.5 nm
same,absorption maximum,in CC#N,553 nm
same,absorption maximum,in CCO,559 nm
same,absorption maximum,in CCOC(C)=O,556.5 nm
same,absorption maximum,in CO,557.5 nm
same,absorption maximum,in OCC(F)(F)F,553 nm
CCN(CC)c1ccc2cc(-c3cn4cc(C)ccc4n3)c(=O)oc2c1,absorption maximum,in ClC(Cl)Cl,424 nm
O=C([O-])c1ccccc1C1=c2cc3c4c(c2Oc2c1cc1c5c2CCCN5CCC1)CCC[N+]=4CCC3,absorption maximum,in CC#N,577 nm
same,absorption maximum,in CCO,564 nm
same,absorption maximum,in CN(C)C=O,580 nm
same,absorption maximum,in O,575 nm
CCN(CC)c1ccc2cc(-c3ccc(-c4c5ccccc5c(-c5ccc(-c6cc7ccc(N(CC)CC)cc7oc6=O)cc5)c5ccccc45)cc3)c(=O)oc2c1,absorption maximum,in ClC(Cl)Cl,412 nm
CC1(C)C2=C3C=C4C5=[N+](CCC4OC3CCN2c2ccc(CC(=O)NCCCCCCO)cc21)c1ccc(S(=O)(=O)[O-])cc1C5(C)C (configuration not stated),absorption maximum,in O,558 nm
N#Cc1ccc(-c2cn3ccc[n+]3[n-]2)cc1,absorption maximum,in ClCCl,381 nm
COc1ccc(C#Cc2c3cc4ccccc4cc3c(C#Cc3ccc(OC)cc3)c3cc4sc(C)cc4cc23)cc1,absorption maximum,in ClCCl,615 nm
Cc1c2c(c(C)c3ccccc13)C1=CC3Nc4ccccc4NC3C=C12 (configuration not stated),absorption maximum,in ClC(Cl)Cl,470 nm
O=CC1=Cc2cocc2C=C(C=O)C1,absorption maximum,in ClC(Cl)Cl,303 nm
COc1ccc(/C=C/C2=CC(/C=C/c3ccc(OC)cc3)=[N+]3C2=C(c2ccc(-c4ccc5ccccc5n4)s2)c2c(/C=C/c4ccc(OC)cc4)cc(/C=C/c4ccc(OC)cc4)n2[B-]3(F)F)cc1,absorption maximum,in C1COCCO1,708 nm
N#CC1=C(c2ccc(-c3cccs3)s2)CC1,absorption maximum,in C1CCOC1,366 nm
same,absorption maximum,in CC#N,364 nm
same,absorption maximum,in CCCCCC,361 nm
same,absorption maximum,in CCO,367 nm
same,absorption maximum,in OCCOCCO,371 nm
same,absorption maximum,in c1ccncc1,372 nm
CCc1nc2c(nc1CC)C(c1ccccc1)=[N+]1C2=Nc2c3nc(CC)c(CC)nc3c(-c3ccccc3)n2[B-]1(F)F,absorption maximum,in C1CCOC1,685 nm
